≈ marks a conversion by molar mass, not a printed value. Where two headings read alike, the source gives them in different places.
Tests used:
[1] = test system: human umbilical vein endothelial cells HUVEC (ATCC CRL-1730); test: Growth inhibition (antiproliferative effect) of HUVEC; format: cell-based; conditions: read-out: antiproliferative GI50, HUVEC
Method: (§2) Compounds were assayed against human umbilical vein endothelial cells HUVEC (ATCC CRL-1730) and human chronic myeloid leukemia cells K-562 (DSM ACC 10) for their antiproliferative effects (GI50) and against human cervix carcinoma cells HeLa (DSM ACC 57) for their cytotoxic effects (CC50) as previously described (Scherlach, K., Partida-Martinez, L. P., Dahse, H. M. & Hertweck, C. Antimitotic rhizoxin derivatives from a cultured bacterial endosymbiont of the rice pathogenic fungus Rhizopus microsporus. Journal of the American Chemical Society 128, 11529-11536 (2006)).

[2] = test system: Mycobacterium vaccae 10670; test: Antimicrobial activity (MIC), test strain Mycobacterium vaccae 10670; format: cell-based
Description: Antimicrobial (MIC value [μM]), cytotoxic (CC50 [μM] for HeLa) and antiproliferative (GI50 [μM] for HUVEC, K-562, HT-29 and MEL-HO) activities of chartreusin and its derivatives. Test strain: Mycobacterium vaccae 10670.

[3] = test system: human chronic myeloid leukemia cells K-562 (DSM ACC 10); test: Growth inhibition (antiproliferative effect) of K-562; format: cell-based
Method: as §2

[4] = Cytotoxicity against HeLa; conditions: human, HeLa cells (human cervix carcinoma, DSM ACC 57)
Method: as §2

[5] = test system: human HT-29 colon adenocarcinoma cells (ACC 299); test: Growth inhibition of HT-29 in the presence or absence of light; format: cell-based
Method: (§1) The human HT-29 colon adenocarcinoma cells (ACC 299) and the human MEL-HO (ACC 62) melanoma cells were grown as previously described (Ueberschaar, N.; Dahse, H.-M.; Bretschneider, T.; Hertweck, C. Angew. Chem. Int. Ed. 2013, 52, 6185-6189).

[6] = test system: human MEL-HO (ACC 62) melanoma cells; test: Growth inhibition of MEL-HO in the presence or absence of light; format: cell-based
Method: as §1

in vitro = conditions: human
Method: as §2

[7] = test system: human cervix carcinoma cells HeLa (DSM ACC 57); test: Cytotoxicity against HeLa; conditions: for CC50: read-out: cytotoxic CC50, HeLa, HeLa
Method: as §2

[8] = test system: methicillin-resistant Staphylococcus aureus (MRSA); test: Antibiotic activity against MRSA; format: cell-based
[9] = Mycolicibacterium vaccae, Test strain: Mycobacterium vaccae 10670, read-out: Antimicrobial MIC value, Mycobacterium vaccae
[10] = Homo sapiens, K562; read-out: antiproliferative GI50, K-562
[11] = Homo sapiens, HT-29, 8 h, read-out: antiproliferative GI50, HT-29, 420 nm, 3 × 8 h, HT-29, 420 nm, 3 × 8 h
[12] = Homo sapiens, HT-29, read-out: GI50 with light, HT-29, HT-29, with light (blue LED)
[13] = Homo sapiens, HT-29, read-out: GI50 without light, HT-29, HT-29, without light (absence of light)
[14] = Homo sapiens, HT-29, read-out: antiproliferative GI50, HT-29, w/o light, HT-29, w/o light
[15] = read-out: GI50 without light, HT-29, HT-29, without light (absence of light)
[16] = 8 h, read-out: antiproliferative GI50, Mel-HO, 420 nm, 3 × 8 h
[17] = read-out: antiproliferative GI50, Mel-HO, w/o light
[18] = Homo sapiens, K562, read-out: antiproliferative GI50, K-562
[19] = Mycolicibacterium vaccae, 10670, read-out: Antimicrobial MIC value, Mycobacterium vaccae
[20] = Test strain: Mycobacterium vaccae 10670, read-out: Antimicrobial MIC value, Mycobacterium vaccae
[21] = K-562; read-out: antiproliferative GI50, K-562

Row | Molecule | GI50 ([1]; Homo sapiens) | MIC [2, 9] | GI50 [3, 10] | CC50 [4] | also measured
1 | COC1[C@@H](O)C(C)O[C@H](OC2[C@H](Oc3cccc4c(O)c5c(=O)oc6ccc(O)c7c(=O)oc(c34)c5c67)OC(C)[C@H](O)[C@@H]2O)[C@@H]1O (stereo partly shown) | 35 µM | 2.4 µM (≈ 1.54 µg/mL) | 4.82 µM | 25.5 µM | –
2 | COC1[C@@H](O)C(C)O[C@H](OC2[C@H](Oc3cccc4c(O)c5c(=O)oc6ccc(Br)c7c(=O)oc(c34)c5c67)OC(C)[C@H](O)[C@@H]2O)[C@@H]1O (stereo partly shown) [Bromchartreusin, 1-Bromochartreusin] | 65.8 µM | 8.9 µM (≈ 6.28 µg/mL) | 8.79 µM | 48.2 µM | –
3 | C=Cc1cc2oc(=O)c3c(O)c4cccc(O[C@@H]5OC(C)[C@H](O)[C@H](O)C5O[C@H]5OC(C)[C@H](O)C(OC)[C@H]5O)c4c4oc(=O)c(c1)c2c34 (stereo partly shown) [(1→2)Abeovinylchartreusin, (1→2)-Abeo-vinylchartreusin] | 16.9 µM | 19.2 µM (≈ 12.5 µg/mL) | – | – | GI50 [5, 11]: 3.06 µM; GI50 [5, 12]: 3.1 µM; GI50 [5, 13]: 7 to 9.4 µM; GI50 [5, 14]: 9.35 µM; GI50 [5, 15]: 9.4 µM; GI50 [6, 16]: 0.48 µM; GI50 [6, 17]: 1.03 µM; GI50 [3, 18]: 4.9 µM; CC50 (in vitro): 33.7 µM
4 | COC1[C@@H](O)C(C)O[C@H](OC2[C@H](Oc3cccc4c(O)c5c(=O)oc6cc(C)cc7c(=O)oc(c34)c5c67)OC(C)[C@H](O)[C@@H]2O)[C@@H]1O (stereo partly shown) [(1→2)Abeochartreusin, (1→2)-Abeo-chartreusin] | 5.78 µM | 4.87 µM (≈ 3.12 µg/mL) | 2.03 µM | 14.2 µM | –
5 | COC1[C@@H](O)C(C)O[C@H](OC2[C@H](Oc3cccc4c(O)c5c(=O)oc6cccc7c(=O)oc(c34)c5c67)OC(C)[C@H](O)[C@@H]2O)[C@@H]1O (stereo partly shown) [Norchartreusin] | 79.8 µM | 2.5 µM (≈ 1.57 µg/mL) | 31.6 µM | 70.7 µM | –
6 | Cc1ccc2oc(=O)c3c(OC(=O)N4CCC(N5CCCCC5)CC4)c4cccc(OC(=O)N5CCC(N6CCCCC6)CC5)c4c4oc(=O)c1c2c34 [Chartarin-1,10 bis-1,4′-bipiperidine-1′-carboxylate] | 4.43 µM | – | 3.18 µM | 10.1 µM | MIC [2, 19]: > 100 µM
7 | CCc1ccc2oc(=O)c3c(O)c4cccc(O[C@@H]5OC(C)[C@H](O)C(O)C5O[C@H]5OC(C)[C@H](O)C(OC)C5O)c4c4oc(=O)c1c2c34 (stereo partly shown) [Homochartreusin] | 7.18 µM | 9.6 µM (≈ 6.28 µg/mL) | 2.14 µM | 23.1 µM | selectivity (GI50 HUVEC versus cytotoxic activity HeLa) ([7]; compared with Chartreusin, HUVEC GI50 similarly low, HeLa CC50 different): higher selectivity
8 | COC1[C@@H](O)C(C)O[C@H](OC2[C@H](Oc3cccc4c(O)c5c(=O)oc6cc(Br)cc7c(=O)oc(c34)c5c67)OC(C)[C@H](O)[C@@H]2O)[C@@H]1O (stereo partly shown) [(1→2)Abeobromchartreusin, (1→2)-Abeo-bromochartreusin] | 25.1 µM | 17.7 µM (≈ 12.5 µg/mL) | 8.65 µM | 26.1 µM | –
9 | Norchartarin-1,10 bis-1,4′-bipiperidine-1′-carboxylate | – | – | – | – | GI50 [1]: 52.3 µM; MIC [2, 20]: >100 µM; GI50 [3, 21]: 52.2 µM; CC50 [7]: > 71 µM
10 | vinylchartarin-1,10 bis-1,4′-bipiperidine-1′-carboxylate | – | – | – | – | GI50 [1]: > 68 µM; MIC [2, 20]: >100 µM; GI50 [3, 21]: > 68 µM; CC50 [7]: > 68 µM
11 | CCc1cc2oc(=O)c3c(O)c4cccc(O[C@@H]5OC(C)[C@H](O)[C@H](O)C5O[C@H]5OC(C)[C@H](O)C(OC)[C@H]5O)c4c4oc(=O)c(c1)c2c34 (stereo partly shown) [(1→2)Abeohomochartreusin, (1→2)-Abeo-homochartreusin] | 26.6 µM | 19.1 µM (≈ 12.5 µg/mL) | 11.6 µM | 58.1 µM | –
12 | C#Cc1cc2oc(=O)c3c(O)c4cccc(O[C@@H]5OC(C)[C@H](O)[C@H](O)C5O[C@H]5OC(C)[C@H](O)C(OC)[C@H]5O)c4c4oc(=O)c(c1)c2c34 (stereo partly shown) [(1→2)Abeo-ethinylchartreusin, (1→2)-Abeo-ethynylchartreusin] | 7.84 µM | 19.2 µM (≈ 12.5 µg/mL) | – | – | activity higher in the presence of light, HT-29 ([5]; HT-29, with light vs without light): 5 fold; GI50 [5, 11]: 1.69 µM; GI50 [5, 12]: 1.7 µM; GI50 [5, 13]: 7 to 9.4 µM; GI50 [5, 14]: 8.61 µM; GI50 [5, 15]: 8.6 µM; GI50 [6, 16]: 1.38 µM; GI50 [6, 17]: 2 µM; GI50 [3, 18]: 3.23 µM; antibiotic activity against MRSA relative to chartreusin and ciprofloxacin [8]: as active as the natural product and are even more potent than the reference antibiotic ciprofloxacin; CC50 (in vitro): 13.4 µM
13 | O=C(Oc1c2cccc(OC(=O)N3CCC(N4CCCCC4)CC3)c2c2oc(=O)c3c(Br)ccc4oc(=O)c1c2c43)N1CCC(N2CCCCC2)CC1 [Bromchartarin-1,10 bis-1,4′-bipiperidine-1′-carboxylate] | 10 µM | – | 9.27 µM | 20.2 µM | MIC [2, 19]: > 100 µM
14 | C#Cc1ccc2oc(=O)c3c(O)c4cccc(O[C@@H]5OC(C)[C@H](O)[C@H](O)C5O[C@H]5OC(C)[C@H](O)C(OC)[C@H]5O)c4c4oc(=O)c1c2c34 (stereo partly shown) [Ethinylchartreusin, Ethynylchartreusin] | > 77 µM | 19.2 µM (≈ 12.5 µg/mL) | 64.1 µM | > 77 µM | GI50 ([5]; Homo sapiens, HT-29, 8 h, HT-29, 420 nm, 3 × 8 h, read-out: antiproliferative GI50, HT-29, 420 nm, 3 × 8 h): 26.9 µM; GI50 ([5]; Homo sapiens, HT-29, HT-29, w/o light, read-out: antiproliferative GI50, HT-29, w/o light): 33.2 µM
15 | COc1ccc2oc(=O)c3c(O)c4cccc(O[C@@H]5OC(C)[C@H](O)[C@H](O)C5O[C@H]5OC(C)[C@H](O)C(OC)[C@H]5O)c4c4oc(=O)c1c2c34 (stereo partly shown) [Methoxychartreusin] | > 76 µM | 76 µM (≈ 49.9 µg/mL) | > 76 µM | > 76 µM | –

Source: patent publication US9522930B2, “Chartreusin analogues” (Leibniz-Institut Für Naturstoff-Forschung Und …, priority 2012, dated 2016)
